# Laboratory results as given in patent US20220386611A1, “NOVEL HETEROARYL-TRIAZOLE COMPOUNDS AS PESTICIDES” (Bayer Aktiengesellschaft, priority 2019, published 2022).
# Key:
# Format in all cases: in vivo
# [1] = tested on: Aedes aegypti strain MONHEIM; experiment: Aedes aegypti test (AEDSAE surface treatment & contact assay); conditions: 24 hours after contact, read-out: efficacy (mortality); for mortality at 4 mg/m2: surface concentration 4 mg/m^2, 30 minutes exposure
# Protocol: Aedes Aegypti Test (AEDSAE Surface Treatment & Contact Assay)
# (§1) Solvent: Aceton+2000 ppm rapeseed oil methyl ester (RME)
# (§2) In order to produce a sufficient, active ingredient containing solution it is necessary to solve the test compound in the solvent-mix (acetone at 2 mg/ml/RME 2000 ppm). This solution is pipetted onto a glazed tile and after evaporation of the acetone, adult mosquitoes of the species Aedes aegypti strain MONHEIM are placed onto the dried surface. The exposure time is 30 minutes. Mortality in percent (%) is determined 24 hours after contact of the insects to the treated surface. 100% mortality means that all tested insects are dead, whereas 0% means that no insect died.
# [2] = tested on: larvae of the southern green stink bug (Nezara viridula); experiment: Nezara viridula spray test; conditions: 96 h, after 4 days, barley plants
# Protocol: Nezara viridula—Spray Test
# Solvent: 78.0 parts by weight of acetone • • 1.5 parts by weight of dimethylformamide
# (§3) Emulsifier: alkylarylpolyglycol ether
# (§4) To produce a suitable preparation of active compound, 1 part by weight of active compound is mixed with the stated amount of solvent, and the concentrate is diluted with water, containing an emulsifier concentration of 1000 ppm, to the desired concentration. Further test concentrations are prepared by dilution with emulsifier containing water.
# Barley plants (Hordeum vulgare) infested with larvae of the southern green stink bug (Nezara viridula) are sprayed with a test solution containing the desired concentration of the active ingredient.
# After 4 days mortality in % is determined. 100% means all the stink bugs have been killed; 0% means none of the stink bugs have been killed.
# [3] = tested on: Rhipicephalus microplus larvae (strain Parkhurst, resistant against synthetic pyrethroids); experiment: Rhipicephalus (Boophilus) microplus in-vitro contact test, larval cattle tick; conditions: 5 μg/cm^2 (=500 g/ha), after 48 hours, read-out: efficacy (larvae dead or moribund)
# Protocol: Rhipicephalus (Boophilus) Microplus—In-Vitro Contact Tests Larval Cattle Tick (Strain Parkhurst, Resistant Against Synthetic Pyrethroids)
# (§5) 9 mg compound is solved in 1 mL acetone and diluted with acetone to the desired concentration. 250 μL of the test solution is filled in 25 mL glass test tubes and homogeneously distributed on the inner walls by rotation and tilting on a shaking device (2 h at 30 rpm). With a compound concentration of 900 ppm, an inner surface of 44.7 cm^2 and a homogeneous distribution, a dose of 5 μg/cm^2 is achieved.
# After the solvent has evaporated, each test tube is filled with 20-50 cattle tick larvae (Rhipicephalus microplus), closed with a perforated lid and incubated in a horizontal position at 85% relative humidity and 27° C. in an incubator. After 48 hours efficacy is determined. The larvae are patted on the ground of the tubes and negative geotactic behaviour is recorded.
# An efficacy of 100% means all larvae are dead or moribund; 0% means no larvae are dead or moribund.
# [4] = tested on: adult cat fleas (Ctenocephalides felis); experiment: Ctenocephalides felis in-vitro contact test, adult cat flea; conditions: after 48 hours, read-out: efficacy (fleas dead or moribund)
# Protocol: as §5, with “Ctenocephalides felis—In-Vitro Contact Tests Adult Cat Flea 9 mg” for “9 mg”
# After the solvent has evaporated, each test tube is filled with 5-10 adult cat fleas (Ctenocephalidesfelis), closed with a perforated lid and incubated in a lying position at room temperature and relative humidity.
# (§6) After 48 hours efficacy is determined. The fleas are patted on the ground of the tubes and are incubated on a heating plate at 45-50° C. for at most 5 minutes. Immotile or uncoordinated moving fleas, which are not able to escape the heat by climbing upwards, are marked as dead or moribund.
# An efficacy of 100% means all fleas are dead or moribund; 0% means no fleas are dead or moribund.
# [5] = tested on: adult unfed cat fleas (Ctenocephalides felis); experiment: Ctenocephalides felis oral test; conditions: 48 h
# Protocol: Ctenocephalides felis—Oral Test
# (§7) Solvent: dimethyl sulfoxide
# To produce a suitable preparation of active compound, 10 mg of active compound are dissolved in 0.5 ml solvent, and the concentrate is diluted with cattle blood to the desired concentration.
# Approximately 20 adult unfed cat fleas (Ctenocephalides felis) are placed in flea chambers. The blood chamber, sealed with parafilm on the bottom, are filled with cattle blood supplied with compound solution and placed on the gauze covered top of the flea chamber, so that the fleas are able to suck the blood. The blood chamber is heated to 37° C. whereas the flea chamber is kept at room temperature.
# After 2 days mortality in % is determined. 100% means all the fleas have been killed; 0% means none of the fleas have been killed.
# [6] = tested on: larvae of the banded cucumber beetle (Diabrotica balteata); experiment: Diabrotica balteata spray test; conditions: 168 h, 100 g/ha (=32 μg/well), after 7 days, wheat seeds, read-out: efficacy (seedlings grown like untreated, uninfected control)
# Protocol: Diabrotica balteata—spray test
# Solvent: 78.0 parts by weight of acetone
# 1.5 parts by weight of dimethylformamide
# as §3, §4
# Soaked wheat seeds (Triticum aestivum) are placed in a multiple well plate filled with agar and some water and are incubated for 1 day to germinate (5 seeds per well). The germinated wheat seeds are sprayed with a test solution containing the desired concentration of the active ingredient. Afterwards each unit is infected with 10-20 larvae of the banded cucumber beetle (Diabrotica balteata).
# After 7 days efficacy in % is determined. 100% means all the seedlings have grown up like in the untreated, uninfected control; 0% means none of the seedlings have grown.
# [7] = tested on: adult engorged female ticks (Rhipicephalus microplus); experiment: Rhipicephalus (Boophilus) microplus injection test; conditions: 168 h, 4 μg/animal, after 7 days, read-out: efficacy (infertile eggs)
# Protocol: Rhipicephalus (Boophilus) microplus—Injection Test
# as §7
# To produce a suitable preparation of active compound, 10 mg of active compound are dissolved in 0.5 mL solvent, and the concentrate is diluted with solvent to the desired concentration.
# Five adult engorged female ticks (Rhipicephalus microplus) are injected with 1 μL compound solution into the abdomen. The ticks are transferred into replica plates and incubated in a climate chamber.
# After 7 days egg deposition of fertile eggs is monitored. Eggs where fertility is not visible are stored in a climate chamber till hatching after about 42 days. An efficacy of 100% means all eggs are infertile; 0% means all eggs are fertile.
# [8] = tested on: adult brown dog ticks (Rhipicephalus sanguineus); experiment: Rhipicephalus sanguineus in-vitro contact test with adult brown dog ticks; conditions: 5 μg/cm^2 (=500 g/ha), after 48 hours, read-out: efficacy (ticks dead or moribund)
# Protocol: Rhipicephalus sanguineus—In-Vitro Contact Tests with Adult Brown Dog Ticks
# as §5
# as §6, with “After the solvent has evaporated, each test tube is filled with 5-10 adult brown dog ticks (Rhipicephalus sanguineus), closed with a perforated lid and incubated in a lying position at room temperature and relative humidity. After” for “After”, “ticks” for “fleas”, “ticks,” for “fleas,”
# An efficacy of 100% means all ticks are dead or moribund; 0% means no ticks are dead or moribund.
# [9] = tested on: green peach aphid (Myzus persicae); experiment: Myzus persicae oral test; conditions: 120 h
# Protocol: Solvent: 100 parts by weight acetone
# To produce a suitable preparation of active compound, 1 part by weight of active compound is mixed with the stated amount of solvent, and the concentrate is diluted with water to the desired concentration. 50 μL compound solution is filled in microtiter plates and 150 μL IPL41 insect medium (33%+15% sugar) is added to obtain a total volume of 200 μL per well. Afterwards the plates are sealed with parafilm through which a mixed population of the green peach aphid (Myzus persicae) can suck on the compound preparation.
# (§8) After 5 days mortality in % is determined. 100% means all aphids have been killed and 0% means none of the aphids have been killed.
# [10] = tested on: Anopheles funestus strain FUMOZ-R; experiment: Anopheles funestus test (ANPHFU surface treatment & contact assay); conditions: surface concentration 20 mg/m^2, 30 minutes exposure, 24 hours after contact, read-out: efficacy (mortality)
# Protocol: Anopheles funestus Test (ANPHFU Surface Treatment & Contact Assay)
# as §1
# as §2, with “Anopheles funestus” for “Aedes aegypti”, “FUMOZ-R (Hunt et al., Med. Vet. Entomol. 2005 September; 19(3): 271-275)” for “MONHEIM”
# [11] = tested on: green peach aphid (Myzus persicae); experiment: Myzus persicae spray test; conditions: foliar, 120 h, after 5 days, Chinese cabbage leaf disks
# Protocol: Myzus persicae—spray test
# Solvent: 78.0 parts by weight acetone • 1.5 parts by weight dimethylformamide
# as §3
# as §4, with “solvents” for “solvent,”, “and” for “and the concentrate”
# Chinese cabbage (Brassica pekinensis) leaf disks infected with all instars of the green peach aphid (Myzus persicae), are sprayed with a preparation of the active ingredient of the desired concentration.
# as §8
smiles,measurement,setting,value
CC(NC(=O)c1cc(Cl)nc(C(F)(F)F)c1)c1nc(Cl)nn1-c1ncccn1 (stereo not shown) [Example I-008],mortality at 4 mg/m2,[1],80 to 100%
same,mortality at 100 g/ha,[2],100%
same,pest or weed control at 5 µg/cm2,[3],100%
same,"pest or weed control at 1 µg/cm2, 100 g/ha",[4]; 1 μg/cm^2 (=100 g/ha),90%
same,"pest or weed control at 5 µg/cm2, 500 g/ha",[4]; 5 μg/cm^2 (=500 g/ha),90%
same,mortality at 100 ppm,[5],100%
same,"pest or weed control at 32 µg/disc, 100 g/ha",[6],80%
same,pest or weed control at 0.004 mg,[7],100%
same,"pest or weed control at 5 µg/cm2, 500 g/ha",[8],100%
CC(NC(=O)c1cncc(C(F)(F)F)c1)c1nc(Cl)nn1-c1ncccn1 (stereo not shown) [Example I-007],mortality at 4 mg/m2,[1],80 to 100%
same,mortality at 20 mg/m2,"[1]; surface concentration 20 mg/m^2, 30 minutes exposure",80 to 100%
same,mortality at 4 ppm,[9],90%
same,mortality at 100 g/ha,[2],90%
same,mortality at 20 mg/m2,[10],80 to 100%
same,pest or weed control at 5 µg/cm2,[3],100%
same,mortality at 100 ppm,[5],100%
same,pest or weed control at 0.004 mg,[7],100%
same,"pest or weed control at 5 µg/cm2, 500 g/ha",[8],100%
same,mortality at 100 g/ha,[11],90%
